Measurements as given in ChEMBL document CHEMBL1949559, “Discovery of a new class of potent prolylcarboxypeptidase inhibitors derived from alanine” (Bioorg Med Chem Lett, 2012).

Columns and labels:
[1] = target: T1, Lysosomal Pro-X carboxypeptidase (Homo sapiens, UniProt P42785); test: Inhibition of human recombinant PrCP using Mca-Ala-Pro-Lys(Dnp)-OH as substrate for 30 mins by continuous fluorimetric assay
T1 sequence (P42785 whole entry): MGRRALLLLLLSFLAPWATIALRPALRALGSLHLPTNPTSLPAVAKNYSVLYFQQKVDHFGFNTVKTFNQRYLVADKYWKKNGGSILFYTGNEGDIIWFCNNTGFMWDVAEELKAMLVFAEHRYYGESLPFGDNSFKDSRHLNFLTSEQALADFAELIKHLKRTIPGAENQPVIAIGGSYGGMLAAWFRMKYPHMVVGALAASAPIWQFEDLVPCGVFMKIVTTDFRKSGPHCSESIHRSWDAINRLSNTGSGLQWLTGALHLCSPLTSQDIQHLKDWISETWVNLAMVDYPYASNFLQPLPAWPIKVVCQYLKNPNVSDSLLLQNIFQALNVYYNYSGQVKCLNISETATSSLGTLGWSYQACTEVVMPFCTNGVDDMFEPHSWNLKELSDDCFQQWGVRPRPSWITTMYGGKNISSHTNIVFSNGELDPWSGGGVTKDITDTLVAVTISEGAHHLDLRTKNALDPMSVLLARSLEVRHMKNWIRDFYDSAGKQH

[2] = target: T2, Lysosomal Pro-X carboxypeptidase (Mus musculus, UniProt Q7TMR0); test: Inhibition of mouse recombinant PrCP using Mca-Ala-Pro-Lys(Dnp)-OH as substrate for 30 mins by continuous fluorimetric assay
T2 sequence (Q7TMR0 whole entry): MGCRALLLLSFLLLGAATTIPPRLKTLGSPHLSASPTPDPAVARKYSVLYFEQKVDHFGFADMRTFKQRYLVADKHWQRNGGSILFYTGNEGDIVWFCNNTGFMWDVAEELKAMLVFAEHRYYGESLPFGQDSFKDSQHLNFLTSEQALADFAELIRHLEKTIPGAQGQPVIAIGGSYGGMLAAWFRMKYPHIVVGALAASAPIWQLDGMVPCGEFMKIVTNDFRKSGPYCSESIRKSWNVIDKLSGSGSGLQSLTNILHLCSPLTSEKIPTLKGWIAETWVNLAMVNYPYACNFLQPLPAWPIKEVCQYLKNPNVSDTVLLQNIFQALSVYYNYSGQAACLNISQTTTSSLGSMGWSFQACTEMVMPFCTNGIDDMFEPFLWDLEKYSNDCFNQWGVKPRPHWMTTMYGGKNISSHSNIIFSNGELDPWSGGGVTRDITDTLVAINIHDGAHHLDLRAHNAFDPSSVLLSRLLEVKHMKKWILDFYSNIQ

[3] = Volume of distribution at steady state in mouse at 1 mg/kg, iv and 2 mg/kg, po; format: ADME, organism-based; settings: in vivo, read-out: Vdss
[4] = Clearance in mouse at 1 mg/kg, iv and 2 mg/kg, po; format: ADME, organism-based; settings: in vivo
[5] = Oral bioavailability in mouse at 2 mg/kg; format: ADME, organism-based; settings: in vivo
[6] = target: T2, Lysosomal Pro-X carboxypeptidase; test: Inhibition of PrCP-mediated angiotensin3 cleavage in mouse plasma using exogenous angiotensin III as substrate for 8 mins by LC/MS analysis
Mus musculus = test: Dose normalized AUC in mouse at 2 mg/kg, po; format: ADME, organism-based; parameters: dose 2 mg/kg, route oral; settings: in vivo
[7] = Half life in mouse at 1 mg/kg, iv and 2 mg/kg, po; format: ADME, organism-based; settings: in vivo
[8] = target: T3, Lysosomal Pro-X carboxypeptidase (Homo sapiens) (UniProt P42785); test: Inhibition of human recombinant PrCP using Mca-Ala-Pro-Lys(Dnp)-OH as substrate at 0.5 uM for 30 mins by continuous fluorimetric assay
T3 sequence (whole entry): T1 sequence (P42785 whole entry)

[9] = target: T3, Lysosomal Pro-X carboxypeptidase (Homo sapiens); test: Inhibition of human recombinant PrCP using Mca-Ala-Pro-Lys(Dnp)-OH as substrate at 5 uM for 30 mins by continuous fluorimetric assay

Work on `O=C(CCc1ccc(-c2ccccc2)cc1)NCc1nc2cc(Cl)c(Cl)cc2[nH]1` yielded an IC50 [1] greater than 10000 nM.

`C[C@H](NC(=O)[C@@H](NC(=O)C(C)(C)N)[C@@H](C)c1ccc(-c2ccccc2)cc1)c1nc2cc(Cl)c(Cl)cc2[nH]1` showed an IC50 [2] of 0.039 nM, a Vd [3] of 14 L/kg and a clearance [4] of 58 mL/min/kg. It also gave a bioavailability [5] of 17%, an IC50 [6] of 22 nM and an AUC/dose (Mus musculus) of 0.52 µM·kg·h/mg. The half-life [7] was 4 h.

For `C[C@H](NC(=O)CCN1CCN(c2ccc(F)cc2)CC1)c1nc2cc(Cl)c(Cl)cc2[nH]1`, the IC50 [6] was 20000 nM.

For `C[C@H](NC(=O)[C@@H](NC(=O)C(C)(C)O)[C@@H](C)c1ccc(-c2cn[nH]c2)cc1)c1nc2cc(Cl)c(Cl)cc2[nH]1`, the IC50 [6] was 78 nM.

`Clc1cc2nc(-c3cccnc3NCCc3ccc(-c4ccccc4)cc3)[nH]c2cc1Cl` showed an IC50 [1] greater than 10000 nM.

`COc1cccc(-c2cnc([C@H](C)NC(=O)CCCOc3ccccc3)[nH]2)c1` showed an inhibition [8] of 65% and an inhibition [9] of 90%.

Molecule `C[C@H](NC(=O)[C@H](Cc1ccc(-c2ccccc2)cc1)NCC(C)(C)N)c1nc2cc(Cl)c(Cl)cc2[nH]1` has an IC50 [6] of 585 nM.

`Clc1cc2nc(-c3cccnc3OCCc3ccc(-c4ccccc4)cc3)[nH]c2cc1Cl` gave an IC50 [1] greater than 10000 nM.

Molecule `CC(C)(NC(=O)CCN1CCC(c2ccccc2)CC1)c1nc2cc(Cl)c(Cl)cc2[nH]1` has an IC50 [1] of 181 nM.

`CC(C)(C)OC(=O)N[C@@H](Cc1ccc(-c2ccccc2)cc1)C(=O)N1CCCC[C@H]1c1nc2cc(Cl)c(Cl)cc2[nH]1` gave an IC50 [1] greater than 10000 nM.

`C[C@H](NC(=O)[C@H](Cc1cccc(C#N)c1)NC(=O)C(C)(C)N)c1nc2cc(Cl)c(Cl)cc2[nH]1` gave an IC50 [2] of 128 nM and an IC50 [6] of 1600 nM.

Work on `O=C(CCCOc1ccccc1)N[C@@H](Cc1ccccc1)c1ncc(-c2ccc(F)cc2)[nH]1` yielded an inhibition [8] of 3% and an inhibition [9] of 13%.

`COc1cccc(-c2cnc(C(NC(=O)CCCOc3ccccc3)C3CCCCC3)[nH]2)c1` (configuration not stated) gave an inhibition [8] of 7% and an inhibition [9] of 31%.

For `C[C@H](NC(=O)[C@@H](NC(=O)C(C)(C)O)[C@@H](C)c1ccc(OCC(F)(F)F)cc1)c1nc2cc(Cl)c(Cl)cc2[nH]1`, the IC50 [6] was 45 nM.

In the case of `C[C@H](NC(=O)[C@@H](N)Cc1cccc(C#N)c1)c1nc2cc(Cl)c(Cl)cc2[nH]1`, the IC50 [6] is reported as 5000 nM.

`C[C@H](NC(=O)[C@@H](NC(=O)C(C)(C)N)[C@@H](C)c1ccc(OCC(F)(F)F)cc1)c1nc2cc(Cl)c(Cl)cc2[nH]1` gave an IC50 [6] of 92 nM.

Work on `C[C@H](NC(=O)CCN1CCN(c2cccc(F)c2)CC1)c1nc2cc(Cl)c(Cl)cc2[nH]1` yielded an IC50 [6] of 5000 nM.
